According to the NIST ThermoML archive (doi:10.1016/j.jct.2010.04.013):

Assay: mn = molality of the nth substance listed, in mol/kg
Conditions: 101 kPa, Liquid; for mass density: Vibrating tube method; for speed of sound: Pulse-echo method

[Ca+2].[O-][Cl+3]([O-])([O-])[O-].[O-][Cl+3]([O-])([O-])[O-] [calcium diperchlorate] + CO
Conditions | mass density, 283.15 K [kg/m3] | mass density, 288.15 K [kg/m3] | mass density, 293.15 K [kg/m3] | mass density, 298.15 K [kg/m3] | mass density, 303.15 K [kg/m3] | mass density, 308.15 K [kg/m3] | mass density, 313.15 K [kg/m3] | speed of sound, 298.15 K [m/s]
m1 = 0.04342 | 808.441 | 803.768 | 799.077 | 794.369 | 789.647 | 784.898 | 780.124 | 1107.2
m1 = 0.05807 | 811.094 | 806.419 | 801.722 | 797.014 | 792.292 | 787.544 | 782.768 | –
m1 = 0.07009 | 813.264 | 808.591 | 803.899 | 799.189 | 794.463 | 789.714 | 784.937 | 1110.9
m1 = 0.08408 | 815.804 | 811.129 | 806.432 | 801.724 | 796.994 | 792.241 | 787.454 | 1112.6
m1 = 0.09795 | 818.319 | 813.643 | 808.941 | 804.234 | 799.508 | 794.756 | 789.975 | 1114.4
m1 = 0.1113 | 820.755 | 816.078 | 811.379 | 806.668 | 801.938 | 797.181 | 792.393 | 1116.1
m1 = 0.1396 | 825.906 | 821.224 | 816.525 | 811.81 | 807.078 | 802.323 | 797.541 | 1119.6
m1 = 0.1663 | 830.829 | 826.145 | 821.443 | 816.722 | 811.986 | 807.224 | 802.43 | 1123
m1 = 0.1921 | 835.646 | 830.963 | 826.254 | 821.535 | 816.796 | 812.035 | 807.248 | 1126.7
m1 = 0.2177 | 840.443 | 835.754 | 831.044 | 826.321 | 821.577 | 816.812 | 812.023 | 1129.5
m1 = 0.2427 | 845.09 | 840.401 | 835.687 | 830.964 | 826.212 | 821.445 | 816.651 | 1132.9
m1 = 0.269 | 850.052 | 845.358 | 840.641 | 835.911 | 831.162 | 826.391 | 821.596 | 1136.3

[Ca+2].[O-][Cl+3]([O-])([O-])[O-].[O-][Cl+3]([O-])([O-])[O-] [calcium diperchlorate] + C[S+](C)[O-]
Conditions | mass density, 293.15 K [kg/m3] | mass density, 298.15 K [kg/m3] | mass density, 303.15 K [kg/m3] | mass density, 313.15 K [kg/m3] | mass density, 323.15 K [kg/m3] | mass density, 333.15 K [kg/m3] | speed of sound, 298.15 K [m/s]
m1 = 0.01996 | 1103.64 | 1098.63 | 1093.62 | 1083.61 | 1073.6 | 1063.59 | –
m1 = 0.02505 | 1104.52 | 1099.51 | 1094.5 | 1084.5 | 1074.49 | 1064.5 | –
m1 = 0.03085 | 1105.52 | 1100.51 | 1095.51 | 1085.52 | 1075.52 | 1065.54 | 1486.8
m1 = 0.03807 | 1106.77 | 1101.77 | 1096.77 | 1086.78 | 1076.8 | 1066.82 | 1487.3
m1 = 0.0488 | 1108.62 | 1103.63 | 1098.64 | 1088.67 | 1078.7 | 1068.74 | 1488.2
m1 = 0.06089 | 1110.72 | 1105.73 | 1100.74 | 1090.8 | 1080.86 | 1070.91 | 1489.3
m1 = 0.07827 | 1113.74 | 1108.77 | 1103.81 | 1093.88 | 1083.96 | 1074.05 | 1490.8
m1 = 0.1006 | 1117.66 | 1112.7 | 1107.75 | 1097.85 | 1087.97 | 1078.08 | 1492.6
m1 = 0.1214 | 1121.33 | 1116.39 | 1111.45 | 1101.58 | 1091.73 | 1081.88 | 1494.5
m1 = 0.1417 | 1124.92 | 1119.99 | 1115.06 | 1105.22 | 1095.39 | 1085.57 | 1496.2
m1 = 0.1651 | 1129.07 | 1124.16 | 1119.25 | 1109.44 | 1099.65 | 1089.87 | 1498.2
m1 = 0.1858 | 1132.79 | 1127.88 | 1122.99 | 1113.2 | 1103.45 | 1093.69 | 1500.1

C[S+](C)[O-] [dimethyl sulfoxide] + O=S(=O)([O-])C(F)(F)F.O=S(=O)([O-])C(F)(F)F.[Be+2]
m2 = 0
Conditions | mass density [kg/m3]
293.15 K | 1100.21
298.15 K | 1095.18
303.15 K | 1090.16
313.15 K | 1080.11
323.15 K | 1070.07
333.15 K | 1060.03

C[S+](C)[O-] [dimethyl sulfoxide] + O=S(=O)([O-])C(F)(F)F.[Na+]
m2 = 0
Conditions | mass density [kg/m3]
293.15 K | 1100.21
298.15 K | 1095.18
303.15 K | 1090.16
313.15 K | 1080.11
323.15 K | 1090.07
333.15 K | 1080.03

C[S+](C)[O-] [dimethyl sulfoxide] + [Ba+2].[O-][Cl+3]([O-])([O-])[O-].[O-][Cl+3]([O-])([O-])[O-]
m2 = 0
Conditions | mass density [kg/m3]
293.15 K | 1100.21
298.15 K | 1095.18
303.15 K | 1090.16
313.15 K | 1080.12
323.15 K | 1070.08
333.15 K | 1060.02
